# Columns and labels:
# [1] = biological target: human cardiac sodium channel, SCN5A (Nav1.5) (Homo sapiens, UniProt Q14524); assay: Sodium channel patch clamp (whole-cell, HEK-293); type: cell-based; conditions: HEK-293 cells expressing human cardiac sodium channel SCN5A, 30,000 nM, read-out: Na+ channel patch clamp (% inhibition)
# Method: The compound was tested at a protein-free aqueous buffer. For determining steady state inhibition, sodium currents were elicited every 5 seconds using the following voltage protocol: cells were held at a potential of −90 mV and stepped to −20 mV for 60 ms. Effects were calculated by measuring inhibition of peak current during the test pulse to −20 mV. Rate-dependence of inhibition was assessed by stimulation at frequencies of 1 Hz and 4 Hz.
# [2] = biological target: T1, human CCR2 (Homo sapiens, UniProt P41597); assay: CCR2 chemotaxis (MCP-1-induced, THP-1 cells); type: cell-based; design: hPBMCs were isolated from human leukopak (Biological Specialty Inc.); endogenous in cells; host or cells: human peripheral blood mononuclear cells from leukopak (Biological Specialty Inc.)
# T1 sequence (P41597 1-360 isoform P41597-2): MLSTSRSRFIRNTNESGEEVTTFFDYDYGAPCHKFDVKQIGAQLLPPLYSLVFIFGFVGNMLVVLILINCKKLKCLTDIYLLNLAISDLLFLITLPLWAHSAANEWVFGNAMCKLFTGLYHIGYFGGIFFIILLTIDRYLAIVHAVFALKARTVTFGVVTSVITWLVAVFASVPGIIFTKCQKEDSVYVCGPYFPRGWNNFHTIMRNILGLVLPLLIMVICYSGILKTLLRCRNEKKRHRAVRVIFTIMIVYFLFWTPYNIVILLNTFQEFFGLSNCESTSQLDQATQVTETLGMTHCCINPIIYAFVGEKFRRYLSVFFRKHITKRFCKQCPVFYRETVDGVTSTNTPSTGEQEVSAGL
# Method: The human CCR2 chemotaxis assay was conducted with the human monocytic cell line, THP-1. THP-1 cells were first labeled with the fluorescent dye Calcein-AM in phenol red-free, BSA-free RPMI-1640 (pH 7.4) at 37° C. for 30 minutes with gentle mixing every 15 minutes. The labeled cells were then washed and re-suspended at 1×10^5/ml in chemotaxis buffer (phenol red-free RPMI-1640, 0.1% BSA, pH 7.4). The test compound was diluted in chemotaxis buffer such that the final assay concentration ranged from 0.01 nM to 1 μM. […] To perform the assay, an equal volume of test compound dilutions was mixed with an equal volume of labeled THP-1 cells (Mixture 1), and an equal volume of test compound dilutions was mixed with an equal volume of diluted MCP-1 ligand (Mixture 2). Both mixtures were incubated independently at 37° C. for 10 minutes followed by gentle mixing. MCP-1-induced chemotaxis was then measured in a chemotaxis plate (Becton Dickinson) by placing 50 μl of Mixture 1 in the top chamber and 225 μl of Mixture 2 in the bottom chamber. The plate was covered with a lid and incubated at 37° C. for 30 minutes. 30 minutes later, the plate was read on a Cytofluor. All conditions were tested in duplicate. […] The inhibition achieved by graded concentrations of test compound was calculated as a percentage of the compound-free MCP-1 control.
# [3] = biological target: T2, hERG (Homo sapiens, UniProt Q12809); assay: hERG patch clamp (whole-cell, HEK-293); type: cell-based; conditions: for inhibition at 10000 nM: pH 7.4, 10,000 nM; for inhibition at 30000 nM: pH 7.4, 30,000 nM
# T2 construct: expressed in transfected cells
# T2 sequence (Q12809 whole entry): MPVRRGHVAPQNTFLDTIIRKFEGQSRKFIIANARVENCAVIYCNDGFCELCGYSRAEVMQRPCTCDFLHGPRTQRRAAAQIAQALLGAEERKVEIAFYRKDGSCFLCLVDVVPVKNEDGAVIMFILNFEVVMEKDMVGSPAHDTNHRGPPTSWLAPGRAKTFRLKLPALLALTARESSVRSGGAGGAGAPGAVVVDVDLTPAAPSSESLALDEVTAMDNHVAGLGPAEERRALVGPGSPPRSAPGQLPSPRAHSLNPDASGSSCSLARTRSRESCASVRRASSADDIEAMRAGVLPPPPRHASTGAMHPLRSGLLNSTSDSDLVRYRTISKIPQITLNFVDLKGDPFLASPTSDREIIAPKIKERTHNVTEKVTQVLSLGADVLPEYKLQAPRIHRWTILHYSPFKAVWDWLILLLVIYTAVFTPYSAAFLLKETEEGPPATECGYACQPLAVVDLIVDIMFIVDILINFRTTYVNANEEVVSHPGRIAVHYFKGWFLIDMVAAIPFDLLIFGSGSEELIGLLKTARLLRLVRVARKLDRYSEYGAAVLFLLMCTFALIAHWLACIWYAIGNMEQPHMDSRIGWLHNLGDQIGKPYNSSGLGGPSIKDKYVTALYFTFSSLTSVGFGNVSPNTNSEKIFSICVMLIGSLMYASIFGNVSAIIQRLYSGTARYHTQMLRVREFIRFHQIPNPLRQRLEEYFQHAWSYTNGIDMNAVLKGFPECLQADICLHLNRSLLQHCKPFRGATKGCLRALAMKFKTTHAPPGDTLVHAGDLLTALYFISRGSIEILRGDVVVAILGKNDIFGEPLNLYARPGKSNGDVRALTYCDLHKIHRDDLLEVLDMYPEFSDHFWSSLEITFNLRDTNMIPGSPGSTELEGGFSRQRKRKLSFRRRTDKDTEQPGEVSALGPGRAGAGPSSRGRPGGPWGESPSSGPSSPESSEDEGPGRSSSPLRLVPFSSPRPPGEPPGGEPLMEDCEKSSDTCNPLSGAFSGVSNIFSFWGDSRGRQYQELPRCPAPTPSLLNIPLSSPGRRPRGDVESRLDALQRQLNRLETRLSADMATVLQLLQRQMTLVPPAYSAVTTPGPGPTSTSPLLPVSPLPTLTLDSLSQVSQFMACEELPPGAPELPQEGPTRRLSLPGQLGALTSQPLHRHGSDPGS
# [4] = Single-dose pharmacokinetics in rats; type: in vivo; conditions: male, Sprague-Dawley, plasma, rat, dose per compound (mg/kg); for AUC: PO; for clearance: IV; for bioavailability: oral bioavailability
# Method: (1500-2000×g) to obtain plasma. […] Plasma samples, obtained by centrifugation at 4° C.
# [5] = Single-dose pharmacokinetics in monkeys; type: in vivo; conditions: male, cynomolgus monkey, plasma, dose per compound (mg/kg); for AUC: PO; for clearance: IV; for bioavailability: oral bioavailability
# Description: (1500-2000×g) to obtain plasma.
# [6] = biological target: T2, hERG; assay: hERG flux (Tl+ flux, FLIPR) in HEK293 cells; type: cell-based; conditions: HEK293 cells stably expressing hERG
# Method: HEK293 cells stably-expressing hERG channels were grown (37° C., 5% CO2) in Dulbecco's Modified Eagle's Media supplemented with 10% Sigma fetal bovine serum, non-essential amino acids, 2 mM L-glutamine and 500 μg/ml G418, at incubator.
# A 2 mM stock of BTC-AM dye (Molecular Probes, Eugene, Oreg.) was prepared in 100% DMSO and then added 1:1 to 10% (w/v) pluronic acid in DMSO on the day of assay. The dye was then diluted in hERG external EP buffer (140 mM NaCl, 4.0 mM KCl, 1.8 mM CaCl2, 1.0 mM MgCl2, 10 mM HEPES, pH 7.3 and 10 mM glucose; all buffer components obtained from Sigma Chemical). […] Cells are incubated at 21° C. for 45 minutes.
# These compounds were then serially-diluted at a 1:2 ratio in DMSO in columns 1-10 and 11-20 of a 384-well plate. Assay-ready plates were generated by stamping 2.5 μl from the DMSO serially diluted plate, which was prepared on the Velocity 11 BioCel. Aqueous plates were created by adding 48 μl of EP buffer and then were diluted 30-45 minutes before the assay was read on the FLIPR. […] Final DMSO concentration in the assay is 1%. Assay-ready aqueous plates were prepared and diluted on a Cybio liquid handler.
# Data collection proceeded every second for 48 seconds, and then continued every three seconds for an additional 2 minutes.
# The dynamic range of the assay was determined from blanks and totals wells. The totals wells (columns 21 and 22) define maximal hERG activation for the plate (no test compound present), and the blanks wells (columns 23 and 24) define 100% hERG inhibition. […] Raw data points in each sample well were first corrected for cell/signal variation, negative control (blanks) background, and normalized to the positive controls (totals) using the online FLIPR software. Test compound concentration response curves for the hERG Tl^+ flux data were then fit using Excel Fit (ID Business Solutions Limited, Surrey, UK) with a single-site logistic equation, Y=A+((B−A)/1+((C/X)^D))) where A=maximal inhibition. Data were analyzed by fitting maximum amplitudes of change in fluorescence for Tl^+ flux for a given condition of test compound.
# [7] = biological target: T1, human CCR2; assay: Human peripheral blood mononuclear cell binding (CCR2 binding), 125I-human MCP-1 tracer; design: hPBMCs were isolated from human leukopak (Biological Specialty Inc.); endogenous in cells; host or cells: human peripheral blood mononuclear cells from leukopak (Biological Specialty Inc.); conditions: hPBMCs, 125I-MCP-1; figure in parentheses in the cell not copied (count of determinations); read-out: CCR2 Binding IC50
# Method: See also: Yoshimura et al., J. Immunol. 1990, 145, 292. The human CCR2 binding assay was established with human peripheral blood mononuclear cells (hPBMCs) using ^125I-human MCP-1 as the tracer ligand. hPBMCs were isolated from human leukopak (Biological Specialty Inc.) using a standard protocol with Ficoll-Hypaque (Mediatech Cellgro). Isolated hPBMCs were washed and diluted to 1×10^7/ml in binding buffer (RPMI-1640, 0.1% BSA, 20 mM Hepes, pH 7.4). ^125I-MCP-1 (NEN/Perk Elmer) was diluted to 0.45 nM in binding buffer. The compound was diluted in binding buffer at 3-fold the final concentrations used in the binding assay. The binding assay was performed using a 96-well filter plate (Millipore). Total ^125I-MCP-1 binding was assessed as follows: to each reaction of a total volume of 150 μl were added 5×10^5 cells, 0.15 nM […], and compound such that the final concentration ranged from 0 to 100 nM. The plate was incubated at room temperature for 30 minutes followed by three washes with RPMI-1640, 0.1% BSA, 0.4 M NaCl, 20 mM Hepes, pH 7.4 using a vacuum manifold filtration (Millipore). After washing, the plate was air-dried for 60 minutes at room temperature. This was followed by adding 25 μl of Microscint 20 into each well. The plate was sealed and counted on the Trilux for 1 minute. Non-specific binding was determined in the presence of 300 nM cold MCP-1 (PeproTech Inc.). Specific 1-MCP-1 was calculated as the difference between total and non-specific binding. All conditions were tested in duplicate.
# [8] = Parallel Artificial Membrane Permeability Assay (PAMPA); type: in vitro ADME; conditions: apical and basolateral pH 7.4
# Method: All experiments are conducted in triplicate determinations.
# Sequence of human cardiac sodium channel, SCN5A (Nav1.5) (Q14524 whole entry): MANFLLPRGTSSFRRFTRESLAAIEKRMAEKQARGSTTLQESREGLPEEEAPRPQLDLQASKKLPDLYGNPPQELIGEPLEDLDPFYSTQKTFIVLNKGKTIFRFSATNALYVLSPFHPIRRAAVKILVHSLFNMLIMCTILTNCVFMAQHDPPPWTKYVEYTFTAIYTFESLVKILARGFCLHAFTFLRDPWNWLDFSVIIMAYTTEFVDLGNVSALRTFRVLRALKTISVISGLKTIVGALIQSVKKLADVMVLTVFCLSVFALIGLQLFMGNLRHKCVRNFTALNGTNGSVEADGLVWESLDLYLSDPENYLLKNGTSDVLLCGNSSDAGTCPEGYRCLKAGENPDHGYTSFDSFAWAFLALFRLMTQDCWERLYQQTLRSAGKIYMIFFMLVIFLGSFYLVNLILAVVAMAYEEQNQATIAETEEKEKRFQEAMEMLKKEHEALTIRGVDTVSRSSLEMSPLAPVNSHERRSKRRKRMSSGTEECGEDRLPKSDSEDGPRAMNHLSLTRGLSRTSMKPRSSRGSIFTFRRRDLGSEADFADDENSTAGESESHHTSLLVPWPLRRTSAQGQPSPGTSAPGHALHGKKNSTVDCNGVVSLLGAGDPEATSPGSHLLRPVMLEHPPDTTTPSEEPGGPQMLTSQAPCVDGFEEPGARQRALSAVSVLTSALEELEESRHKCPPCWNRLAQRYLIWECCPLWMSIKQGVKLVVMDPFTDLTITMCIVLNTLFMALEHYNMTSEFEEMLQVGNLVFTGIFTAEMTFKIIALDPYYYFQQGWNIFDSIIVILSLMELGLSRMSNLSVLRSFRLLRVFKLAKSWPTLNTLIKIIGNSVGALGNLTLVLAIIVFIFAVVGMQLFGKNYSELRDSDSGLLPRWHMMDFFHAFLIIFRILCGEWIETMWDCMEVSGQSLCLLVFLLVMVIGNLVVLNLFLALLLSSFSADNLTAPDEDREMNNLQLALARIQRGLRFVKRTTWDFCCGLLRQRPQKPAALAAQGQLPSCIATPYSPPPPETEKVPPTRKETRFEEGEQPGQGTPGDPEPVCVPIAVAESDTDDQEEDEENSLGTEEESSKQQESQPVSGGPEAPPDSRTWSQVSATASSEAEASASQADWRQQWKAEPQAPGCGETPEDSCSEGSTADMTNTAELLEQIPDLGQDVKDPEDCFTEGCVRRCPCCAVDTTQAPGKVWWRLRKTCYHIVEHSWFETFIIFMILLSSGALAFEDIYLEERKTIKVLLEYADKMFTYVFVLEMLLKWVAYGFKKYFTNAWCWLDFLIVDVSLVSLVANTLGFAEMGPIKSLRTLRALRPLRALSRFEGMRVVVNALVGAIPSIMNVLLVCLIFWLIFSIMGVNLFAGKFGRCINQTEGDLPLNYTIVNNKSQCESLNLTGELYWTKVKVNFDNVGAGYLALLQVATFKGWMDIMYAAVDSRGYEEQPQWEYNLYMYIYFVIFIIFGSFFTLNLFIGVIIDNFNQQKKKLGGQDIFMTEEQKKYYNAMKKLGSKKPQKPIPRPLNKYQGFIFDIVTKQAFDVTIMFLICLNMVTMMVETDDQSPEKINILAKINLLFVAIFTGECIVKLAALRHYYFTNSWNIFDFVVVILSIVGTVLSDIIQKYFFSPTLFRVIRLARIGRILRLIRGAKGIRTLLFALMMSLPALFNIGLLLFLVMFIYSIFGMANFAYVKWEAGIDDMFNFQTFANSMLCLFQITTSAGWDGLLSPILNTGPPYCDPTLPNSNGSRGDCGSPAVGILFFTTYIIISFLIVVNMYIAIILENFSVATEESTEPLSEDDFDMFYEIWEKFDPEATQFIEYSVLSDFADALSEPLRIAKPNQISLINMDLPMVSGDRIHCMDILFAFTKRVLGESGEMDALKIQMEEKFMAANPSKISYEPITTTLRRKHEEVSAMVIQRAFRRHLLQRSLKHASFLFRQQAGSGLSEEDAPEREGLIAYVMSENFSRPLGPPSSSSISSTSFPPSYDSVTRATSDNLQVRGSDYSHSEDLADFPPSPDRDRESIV
IC50 [2],AUC [4],AUC [5],IC50 [7],"Papp at 4 h, 100 µM [8]",clearance [4],bioavailability [4],Structure (SMILES),inhibition at 30000 nM [1],inhibition at 10000 nM [3],inhibition at 30000 nM [3],IC50 [6],clearance [5],bioavailability [5],"inhibition at 100000 nM ([3]; pH 7.4, 100,000 nM)"
3.85 ± 0.36 nM,–,–,3.34 ± 0.32 nM,18.7 ×10⁻⁶ cm/s,–,–,"CC(=O)N[C@@H]1C[C@H](N(C)C(C)C)CC[C@@H]1N1CC[C@H](Nc2ncnc3cnc(C(C)(C)C)nc23)C1=O [Example 1, N-((1R,2S,5R)-2-((3S)-3-((6-tert-butylpyrimido[5,4-d]pyrimidin-4-yl)amino)-2-oxo-1-pyrrolidinyl)-5-(isopropyl(methyl)amino)cyclohexyl)acetamide]",13%,8%,17%,> 80000 nM,–,–,–
0.92 nM,3.04 µM·h,–,1.91 ± 0.52 nM,35 ×10⁻⁶ cm/s,56 mL/min/kg,52%,"CC(C)(C)N[C@@H]1CC[C@H](N2CC[C@H](NC(=O)c3ccnc(C(C)(C)C)n3)C2=O)[C@H](NS(C)(=O)=O)C1 [Example 11, 2-tert-butyl-N—((S)-1-((1S,2R,4R)-4-(tert-butylamino)-2-(methylsulfonamido)cyclohexyl)-2-oxopyrrolidin-3-yl)pyrimidine-4-carboxamide]",–,–,15%,> 80000 nM,–,–,–
0.92 ± 0.67 nM,16.2 µM·h,0.333 µM·h,3.34 ± 0.71 nM,18.6 ×10⁻⁶ cm/s,23 mL/min/kg,93%,"CO[C@@H]1CC[C@H](N2CC[C@H](Nc3ncnc4ccc(C(F)(F)F)cc34)C2=O)[C@H](CNC(C)=O)C1 [Example 15, N-(((1S,2S,5R)-5-methoxy-2-((3S)-2-oxo-3-((6-(trifluoromethyl)-4-quinazolinyl)amino)-1-pyrrolidinyl)cyclohexyl)methyl)acetamide]",–,–,29%,> 80000 nM,28 mL/min/kg,19%,47%
–,5.23 µM·h,0.413 µM·h,4.49 ± 1.35 nM,23.9 ×10⁻⁶ cm/s,59 mL/min/kg,91%,"CCC(=O)N[C@@H]1C[C@H](NC(C)(C)C)CC[C@@H]1N1CC[C@H](NC(=O)c2ccnc(C(C)(C)C)n2)C1=O [Example 12, 2-tert-butyl-N-((3S)-1-((1S,2R,4R)-4-(tert-butylamino)-2-(propionylamino)cyclohexyl)-2-oxo-3-pyrrolidinyl)-4-pyrimidinecarboxamide]",–,6%,7%,> 80000 nM,–,–,–
0.49 nM,10.5 µM·h,0.263 µM·h,4.02 ± 1.31 nM,54.1 ± 6.3 ×10⁻⁶ cm/s,26 mL/min/kg,88%,"CC(C)(C)N[C@@H]1CC[C@H](N2CC[C@H](Nc3ncnc4cnc(C(C)(C)C)nc34)C2=O)[C@H](NS(C)(=O)=O)C1 [Example 13, N-((1R,2S,5R)-5-(tert-butylamino)-2-((3S)-3-((6-tert-butylpyrimido[5,4-d]pyrimidin-4-yl)amino)-2-oxo-1-pyrrolidinyl)cyclohexyl)methanesulfonamide]",–,–,10%,> 80000 nM,–,–,–

Structure (SMILES),IC50 [2],AUC [4],AUC [5],IC50 [7],"Papp at 4 h, 100 µM [8]",clearance [4],bioavailability [4],inhibition at 30000 nM [1],inhibition at 10000 nM [3],inhibition at 30000 nM [3],IC50 [6],clearance [5],bioavailability [5],"inhibition at 100000 nM ([3]; pH 7.4, 100,000 nM)"
"CC(=O)N[C@@H]1C[C@H](N(C)C)CC[C@@H]1N1CC[C@H](Nc2ncnc3ccc(C(F)(F)F)cc23)C1=O [Example 8, N-((1R,2S,5R)-5-(dimethylamino)-2-((3S)-2-oxo-3-((6-(trifluoromethyl)-4-quinazolinyl)amino)-1-pyrrolidinyl)cyclohexyl)acetamide]",4.09 ± 1.21 nM,7.28 µM·h,0.558 µM·h,3.58 ± 0.78 nM,–,–,–,11%,18%,37%,> 80000 nM,–,–,–
"CN[C@@H]1CC[C@H](N2CC[C@H](Nc3ncnc4ccc(C(F)(F)F)cc34)C2=O)[C@H](NC(C)=O)C1 [Example 3, N-((1R,2S,5R)-5-(methylamino)-2-((3S)-2-oxo-3-((6-(trifluoromethyl)-4-quinazolinyl)amino)-1-pyrrolidinyl)cyclohexyl)acetamide]",–,–,2.05 µM·h,4.74 ± 0.58 nM,–,–,–,3%,6%,24%,> 80000 nM,15 mL/min/kg,91%,–

# — patent publication US7687508B2, “Cyclic derivatives as modulators of chemokine receptor activity” (Bristol-Myers Squibb Company, priority 2006, dated 2010)
